Data: BigSolDB 2.1

Cc1cc(N)n(-c2ccccc2)n1
solubility (mole fraction)
Settings	in 2-butanone	in acetonitrile	in ethanol	in isopropanol	in methanol	in n-propanol
283.15 K	0.0482	0.124	0.0766	0.056	0.0852	0.0705
285.65 K	0.0511	0.13	0.0811	0.0593	0.089	0.0749
288.15 K	0.0546	0.137	0.0854	0.0632	0.0938	0.0795
290.65 K	0.0581	0.144	0.0903	0.0672	0.0988	0.0839
293.15 K	0.0618	0.15	0.0955	0.0711	0.104	0.0889
295.65 K	0.0653	0.157	0.101	0.0755	0.109	0.0946
298.15 K	0.0694	0.164	0.107	0.0802	0.115	0.0997
300.65 K	0.0736	0.172	0.113	0.0851	0.121	0.105
303.15 K	0.0784	0.18	0.119	0.0906	0.127	0.112
305.65 K	0.0829	0.189	0.126	0.0957	0.134	0.118
308.15 K	0.0881	0.198	0.132	0.102	0.14	0.125
310.65 K	0.0931	0.206	0.139	0.108	0.147	0.132
313.15 K	0.0989	0.216	0.147	0.114	0.154	0.139
315.65 K	0.105	0.226	0.154	0.121	0.162	0.147
318.15 K	0.111	0.236	0.163	0.129	0.171	0.155
